The values below come from publication PMC6073568, “Efficient Lead Finding, Activity Enhancement and Preliminary Selectivity Control of Nuclear Receptor Ligands Bearing a Phenanthridinone Skeleton” (International Journal of Molecular Sciences, 2018).

One experiment concerns the target T1, RORα (Homo sapiens, UniProt P35398).
T1 construct: expressed in transfected cells; host or cells: HEK293
T1 sequence (P35398 1-523): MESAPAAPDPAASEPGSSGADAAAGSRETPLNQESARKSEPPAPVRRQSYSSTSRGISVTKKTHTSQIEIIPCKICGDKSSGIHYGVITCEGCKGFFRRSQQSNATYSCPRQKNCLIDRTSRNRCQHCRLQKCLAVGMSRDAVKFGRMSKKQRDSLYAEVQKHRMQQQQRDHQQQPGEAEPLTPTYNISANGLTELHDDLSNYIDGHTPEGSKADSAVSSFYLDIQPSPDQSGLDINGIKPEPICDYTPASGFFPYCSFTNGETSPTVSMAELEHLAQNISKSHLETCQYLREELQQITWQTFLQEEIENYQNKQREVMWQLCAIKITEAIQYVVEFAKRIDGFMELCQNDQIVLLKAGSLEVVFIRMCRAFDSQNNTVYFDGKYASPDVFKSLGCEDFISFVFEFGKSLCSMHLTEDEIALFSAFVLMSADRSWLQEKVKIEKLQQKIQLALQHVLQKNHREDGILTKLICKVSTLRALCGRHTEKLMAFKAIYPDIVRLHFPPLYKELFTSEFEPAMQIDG
The conditions noted are these: reporter gene assay, HEK293; read-out: RORα inverse agonistic activity (IC50); cited from earlier work. For orientation: In a reporter assay the amount or activity of a reporter protein is the signal.

For a further experiment, the target named is T2, RORγ (Homo sapiens, UniProt P51449).
T2 construct: expressed in transfected cells; host or cells: HEK293
T2 sequence (P51449 1-518): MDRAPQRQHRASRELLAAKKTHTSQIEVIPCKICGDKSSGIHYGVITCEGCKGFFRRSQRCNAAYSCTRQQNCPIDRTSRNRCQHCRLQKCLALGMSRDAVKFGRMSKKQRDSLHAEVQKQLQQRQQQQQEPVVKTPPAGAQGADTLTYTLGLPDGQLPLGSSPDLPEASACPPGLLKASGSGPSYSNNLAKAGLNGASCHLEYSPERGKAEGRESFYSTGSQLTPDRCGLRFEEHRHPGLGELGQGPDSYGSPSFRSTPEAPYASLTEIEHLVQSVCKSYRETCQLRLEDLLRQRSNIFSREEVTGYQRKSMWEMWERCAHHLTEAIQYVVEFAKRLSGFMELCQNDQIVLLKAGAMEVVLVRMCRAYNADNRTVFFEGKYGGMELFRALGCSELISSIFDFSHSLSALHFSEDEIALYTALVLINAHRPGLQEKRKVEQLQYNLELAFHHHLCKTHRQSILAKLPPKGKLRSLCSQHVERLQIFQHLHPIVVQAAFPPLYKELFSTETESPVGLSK
Conditions: reporter gene assay, HEK293; read-out: RORγ inverse agonistic activity (IC50); cited from earlier work.

The next experiment has as its target T3, AR (Homo sapiens, UniProt P10275).
T3 sequence (P10275 1-920): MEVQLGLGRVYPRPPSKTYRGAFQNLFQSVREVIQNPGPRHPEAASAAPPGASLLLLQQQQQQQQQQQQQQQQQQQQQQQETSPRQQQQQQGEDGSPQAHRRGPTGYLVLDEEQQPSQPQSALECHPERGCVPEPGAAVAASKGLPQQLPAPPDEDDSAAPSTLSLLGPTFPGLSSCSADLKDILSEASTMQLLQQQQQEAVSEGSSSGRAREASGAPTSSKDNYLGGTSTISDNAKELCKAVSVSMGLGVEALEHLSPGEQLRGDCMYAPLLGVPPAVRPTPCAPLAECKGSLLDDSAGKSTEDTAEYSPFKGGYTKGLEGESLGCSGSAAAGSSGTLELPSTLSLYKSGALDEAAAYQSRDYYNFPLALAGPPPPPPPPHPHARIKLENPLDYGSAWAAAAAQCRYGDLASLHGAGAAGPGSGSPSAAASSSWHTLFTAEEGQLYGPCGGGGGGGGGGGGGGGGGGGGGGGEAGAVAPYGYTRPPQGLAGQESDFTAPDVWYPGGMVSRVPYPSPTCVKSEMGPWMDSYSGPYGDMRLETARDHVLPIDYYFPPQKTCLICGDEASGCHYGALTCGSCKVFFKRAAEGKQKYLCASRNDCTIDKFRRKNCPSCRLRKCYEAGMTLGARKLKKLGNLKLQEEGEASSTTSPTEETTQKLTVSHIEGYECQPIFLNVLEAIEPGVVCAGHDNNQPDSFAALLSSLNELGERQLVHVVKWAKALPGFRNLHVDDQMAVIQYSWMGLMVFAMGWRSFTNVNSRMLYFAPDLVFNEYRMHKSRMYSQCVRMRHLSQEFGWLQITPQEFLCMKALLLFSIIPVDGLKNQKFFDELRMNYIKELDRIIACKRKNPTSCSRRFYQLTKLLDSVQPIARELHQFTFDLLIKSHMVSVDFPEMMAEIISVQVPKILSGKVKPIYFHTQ
As to the kind of experiment: AR reporter gene assay in HEK293. Format: cell-based. Conditions: for IC50: reporter gene assay, HEK293, agonist dihydrotestosterone 0.3 nM, read-out: AR antagonistic activity (IC50), AR reporter gene.

The target in the next experiment is T4, LXRα (Homo sapiens, UniProt Q13133).
T4 construct: CMX-GAL4N-hLXRα-LBD; expressed in transfected cells; host or cells: HEK293
T4 sequence (Q13133 209-447 limits assumed): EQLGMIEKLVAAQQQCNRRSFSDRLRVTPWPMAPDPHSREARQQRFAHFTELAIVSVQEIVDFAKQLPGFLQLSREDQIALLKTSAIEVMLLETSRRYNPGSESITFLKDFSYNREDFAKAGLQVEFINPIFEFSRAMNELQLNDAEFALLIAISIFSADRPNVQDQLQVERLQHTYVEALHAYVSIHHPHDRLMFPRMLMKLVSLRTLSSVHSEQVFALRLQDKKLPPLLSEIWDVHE
Kind of experiment: LXRα reporter gene assay in HEK293. Format: cell-based. Conditions: read-out: LXRα antagonistic activity (IC50).

The next experiment concerns the target T5, LXRβ (Homo sapiens, UniProt P55055).
T5 construct: CMX-GAL4N-hLXRβ-LBD; expressed in transfected cells; host or cells: HEK293
T5 sequence (P55055 222-460 limits assumed): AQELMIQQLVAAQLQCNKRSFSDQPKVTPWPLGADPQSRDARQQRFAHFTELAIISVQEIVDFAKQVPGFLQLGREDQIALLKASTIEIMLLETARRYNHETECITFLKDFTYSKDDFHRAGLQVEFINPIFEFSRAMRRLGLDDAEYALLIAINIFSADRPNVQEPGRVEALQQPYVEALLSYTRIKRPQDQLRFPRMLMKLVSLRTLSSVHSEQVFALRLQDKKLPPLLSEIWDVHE
As to the kind of experiment: LXRβ reporter gene assay in HEK293. It counts as cell-based. Conditions: read-out: LXRβ antagonistic activity (IC50).

Where only a bound is given, the exact number is not on record here.

`CCCCn1c(=O)c2ccccc2c2cc(C(O)(C(F)(F)F)C(F)(F)F)cc(OC)c21` [Compound 20]: the IC50 was 7.5 µM at RORα; 5.4 µM at RORγ; 2.4 µM on AR; 6.9 µM on LXRα; 5.5 µM at LXRβ.

As for `O=c1[nH]c2ccc(C(O)(C(F)(F)F)C(F)(F)F)cc2c2cc(F)ccc12` [Compound 35], the IC50 on RORα was 9.8 µM; at RORγ, 5 µM; at AR, 0.92 µM; at LXRα it was 6.4 µM; at LXRβ, 5.4 µM.

Regarding `Cn1c(=O)c2ccccc2c2cc(C(O)(C(F)(F)F)C(F)(F)F)ccc21` [Compound 13], the IC50 is above 20 µM on RORα, above 20 µM at RORγ and 0.5 µM on AR.

For `CCCCn1c(=O)c2cc(OC)ccc2c2cc(C(O)(C(F)(F)F)C(F)(F)F)cc(OC)c21` [Compound 28], the IC50 at RORα is 11 µM; at RORγ it was 9.7 µM; on AR, 1.7 µM; on LXRα, above 10 µM; at LXRβ, above 10 µM.

Turning to `O=c1[nH]c2ccc(C(O)(C(F)(F)F)C(F)(F)F)cc2c2ccc(F)cc12` [Compound 34], the IC50 on RORα was 17 µM; at RORγ, above 20 µM; on AR, 0.68 µM; at LXRα, 7.9 µM; on LXRβ, 6 µM.

As to `CCc1cc(C(O)(C(F)(F)F)C(F)(F)F)cc2c1[nH]c(=O)c1ccccc12` [Compound 41], the IC50 was above 20 µM at RORα; above 20 µM at RORγ; 14 µM at AR; above 20 µM at LXRα; above 20 µM on LXRβ.

As to `CCCCn1c(=O)c2ccccc2c2ccccc21` [Compound 7], the IC50 at RORα is 10 µM; at RORγ, 15 µM; at AR it was 17 µM; at LXRα it was 19 µM; on LXRβ it was 15 µM.

Consider `O=c1[nH]c2c(Cl)cc(C(O)(C(F)(F)F)C(F)(F)F)cc2c2ccccc12` [Compound 43, 4-Chloro-2-(1,1,1,3,3,3-hexafluoro-2-hydroxypropan-2-yl)phenanthridin-6(5H)-one], for which, at AR, the “selectivity for AR over LXRα” value is listed as 90 fold; the “selectivity for AR over PR” value is on record as 6 fold; the “selectivity for AR over RORs and LXRβ” value was “more than 340 fold”; the IC50 is 0.059 µM. Moreover, the “AR potency relative to OHF (more potent)” value at AR (under the authors' assay conditions) is given as 2.9 fold. Also, the IC50 on LXRα was found to be 5.3 µM. The IC50 on LXRβ was above 20 µM.

As for `CCCCn1c(=O)c2ccccc2c2cc(CO)ccc21` [Compound 11], the IC50 was above 20 µM at RORα; above 20 µM on RORγ; 9.6 µM on AR; above 20 µM on LXRα; above 20 µM on LXRβ.

Take `CCCCn1c(=O)c2ccccc2c2cc(C(O)(C(F)(F)F)C(F)(F)F)c(OC)cc21` [Compound 19]: the IC50 at RORα was 8.2 µM; at RORγ it was 7.5 µM; on AR, 1.1 µM; at LXRα, 8.4 µM; at LXRβ, 9.2 µM.

`CCCCn1c(=O)c2c(OC)cc(OC)cc2c2cc(C(O)(C(F)(F)F)C(F)(F)F)ccc21` [Compound 30]: the IC50 at RORα, on RORγ, at AR, at LXRα and at LXRβ was above 20 µM each time.

Regarding `CCCCn1c(=O)c2c(OC)cccc2c2cc(C(O)(C(F)(F)F)C(F)(F)F)ccc21` [Compound 21], the IC50 on RORα is 12 µM; at RORγ, 13 µM; on AR, 9.4 µM; at LXRα it was 11 µM; at LXRβ, 12 µM.

Regarding `O=c1[nH]c2ccc(C(O)(C(F)(F)F)C(F)(F)F)cc2c2ccccc12` [Compound 1], the values for the IC50 on RORα, at RORγ and at AR were above 20 µM, above 20 µM and 0.1 µM, respectively.

In general, IC50 refers to the concentration that inhibits the measured activity by half.
